Data reported in patent US20250154198A1, “PEPTIDE INHIBITORS OF INTERLEUKIN-23 RECEPTOR” (Zealand Pharma A/S, priority 2021, published 2025).
Read-outs that look alike come from different tables or passages of the source. *1 amine or outer side, *2 acyl side, *3 side chain or, on linkers, in order; H or OH if unused. Where a SMILES comes first, the peptide text is derived from it. Bridges are numbered along the chain shown (N, C = ends). [ ]: non-standard residue; d: D form. 2Nal = N[C@@H](Cc1ccc2ccccc2c1)C(=O)O; AEF = NCCOc1ccc(C[C@H](N)C(=O)O)cc1; αMeL = CC(C)C[C@](C)(N)C(=O)O; CH2COCH2 = O=C(C[*:1])C[*:2]

Assays:
[1] = molecular target: T1, human IL-23R (Homo sapiens, UniProt Q5VWK5); test: Binding assay (NanoBRET displacement of fluorophore-labelled reference compound) for estimating binding affinity to human IL-23R
T1 construct: UniProtKB—Q5VWK5, amino acids 22-629; secretion signal of the plasmid (Promega N1371); expressed in transfected cells
T1 sequence (Q5VWK5 22-629): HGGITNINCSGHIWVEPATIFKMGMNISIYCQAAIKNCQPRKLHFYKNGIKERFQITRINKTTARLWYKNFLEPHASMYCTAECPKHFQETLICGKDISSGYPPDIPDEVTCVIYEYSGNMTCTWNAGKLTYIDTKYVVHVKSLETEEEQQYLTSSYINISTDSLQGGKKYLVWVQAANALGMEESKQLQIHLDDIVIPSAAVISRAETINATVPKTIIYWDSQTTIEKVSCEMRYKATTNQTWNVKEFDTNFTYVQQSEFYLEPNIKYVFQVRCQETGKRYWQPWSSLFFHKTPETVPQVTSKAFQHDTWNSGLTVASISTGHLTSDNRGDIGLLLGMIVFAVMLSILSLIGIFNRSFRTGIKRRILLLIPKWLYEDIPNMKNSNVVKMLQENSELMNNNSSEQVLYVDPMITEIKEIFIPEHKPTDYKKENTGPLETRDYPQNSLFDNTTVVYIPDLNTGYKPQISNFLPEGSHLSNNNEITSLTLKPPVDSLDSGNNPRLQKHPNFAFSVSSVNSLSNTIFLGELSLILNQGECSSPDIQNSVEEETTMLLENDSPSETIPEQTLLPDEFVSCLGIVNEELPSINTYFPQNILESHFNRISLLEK

[2] = molecular target: IL-23 mediated phospho-STAT3 formation in DB cells (Homo sapiens, UniProt Q5VWK5); test: Functional inhibition of IL-23 mediated STAT3 signalling (phospho-STAT3 Tyr705 MSD) in DB cells; format: cell-based
Source text: Functional Inhibition of IL-23 Mediated STAT3 Signalling by Compounds
Upon binding of IL-23, the IL-23R forms a heterodimer signalling complex together with IL-12R β1, which through the JAK2/STAT3 pathway promotes phosphorylation of STAT3 to form phospho-STAT3.
The assay was used to quantify the functional antagonism of a compound and to rank order the inhibitor compounds according to their potency. For compounds tested in this assay, the response was normalized relative to control values to calculate the IC50 and maximal inhibitory response from a concentration response curve of the compound in presence of a fixed concentration of human IL-23.
The assay procedure was as follows. […] Following preincubation of the DB cells with inhibitor for 15 min in a cell incubator (37° C., 5% CO2), 20 μL of the prepared 3× the EC80 of hIL-23 solution was added to each well and incubated for 90 min in a cell incubator (37° C., 5% CO2). For some wells buffer only or IL-23 only corresponding to the EC80 was added to obtain readouts needed for normalization. To terminate the assay, the plate was spun at 1000 G for 5 min to pellet cells, the supernatant removed using an 8-channel manual pipette, and then added 50 μL/well Complete Lysis Buffer from the MSD STAT3 kit (Cat #K150SVD, Mesoscale) to the cell pellet. To completely lyse cells to release phospho-STAT3 for detection, the plate was shaken for 10 min at room temperature (500 rpm) sealed with aluminum foil and placed at −80° C. for a minimum of 15 min. Detection of the phospho-STAT3 level in the cell lysate from the individual wells was determined using the MSD STAT3 kit (Cat #K150SVD, Mesoscale) and read on a Meso QuickPlex SQ 120 plate reader (Mesoscale).
For data analysis raw data counts from the Meso QuickPlex SQ 120 plate reader were normalized relative to the response by the EC80 of hIL-23 alone (no compound added) and the buffer level. Compound potency (IC50) and maximal inhibitory response (% inhibition) were estimated by computer-aided curve fitting using a 4-parameter logistic (4PL) non-linear model.

[3] = Table 3-1, read-out: Ki hIL-23R
[4] = Table 3-1, DB cells, read-out: IC50 (pSTAT3)

Compound	Ki [1, 3]	IC50 [2, 4]	other results
CC(=O)N[C@H]1CCCCNC(=O)CC[C@@H](C(=O)N[C@@H](CCCNC(=N)N)C(N)=O)NC(=O)[C@H](CC(C)C)NC(=O)[C@H](Cc2ccc3ccccc3c2)NC(=O)[C@H](Cc2ccc(OCCN)cc2)NC(=O)[C@@H]2CSCC(=O)CSC[C@H](NC(=O)[C@H](CO)NC1=O)C(=O)N[C@@H](Cc1c[nH]c3ccccc13)C(=O)N[C@@H](CCC(N)=O)C(=O)N2 [Compound 29, [Ac]-K(1c)SC(2a)WQC(2a)[Y(2-aminoethoxy)][2-Nal]LE(1c)R-[NH2]] (Ac-KSCWQC[AEF][2Nal]LER-NH2; lactam 1-10; linker 3-6 via CH2COCH2)	0.68 nM		Ki ([1]; Table 2-9b, read-out: Ki IL-23R): 0.64 nM; IC50 ([2]; Table 2-9b, DB cells, read-out: IC50 (pSTAT3)): 19.7 nM
CC(=O)N[C@@H](CC(=O)O)C(=O)N[C@H]1CCCCNC(=O)CC[C@@H](C(=O)N[C@@H](CCCNC(=N)N)C(N)=O)NC(=O)[C@H](CC(C)C)NC(=O)[C@H](Cc2ccc3ccccc3c2)NC(=O)[C@H](Cc2c[nH]c3ccccc23)NC(=O)[C@@H]2CSCc3ccc(cc3)CSC[C@H](NC(=O)[C@H](CO)NC1=O)C(=O)N[C@@H](Cc1c[nH]c3ccccc13)C(=O)N[C@@H](CCC(N)=O)C(=O)N2 [Compound 22, [Ac]-DK(1c)SC(2f)WQC(2f)W[2-Nal]LE(1c)R-[NH2]] (HELM PEPTIDE1{[ac].D.K.S.C.W.Q.C.W.[O=C([C@H](Cc1ccc2ccccc2c1)N[*:1])[*:2]].L.E.R.[am]}|CHEM1{[c1cc(C[*:2])ccc1C[*:1]]}$PEPTIDE1,PEPTIDE1,3:R3-12:R3|PEPTIDE1,CHEM1,5:R3-1:R1|PEPTIDE1,CHEM1,8:R3-1:R2$$$V2.0)		> 1000 nM	Ki ([1]; Table 2-7b, read-out: Ki IL-23R): 563 nM; IC50 ([2]; Table 2-7b, DB cells, read-out: IC50 (pSTAT3)): > 1000 nM
CSCC[C@@H]1NC(=O)[C@H](CO)NC(=O)[C@@H](NC(=O)[C@H](CC(=O)O)NC(C)=O)CCC(=O)NCCCC[C@@H](C(=O)N[C@@H](CCCNC(=N)N)C(N)=O)NC(=O)[C@H](CC(C)C)NC(=O)[C@H](Cc2c[nH]c3ccccc23)NC(=O)[C@H](Cc2c[nH]c3ccccc23)NC(=O)[C@H](CCSC)NC(=O)[C@H](CCC(N)=O)NC(=O)[C@H](Cc2c[nH]c3ccccc23)NC1=O [Ref 4, reference compound] (HELM PEPTIDE1{[ac].D.E.S.M.W.Q.M.W.W.L.K.R.[am]}$PEPTIDE1,PEPTIDE1,3:R3-12:R3$$$V2.0)	> 1000 nM	> 1000 nM	
CC(C)C[C@@H]1NC(=O)[C@H](Cc2c[nH]c3ccccc23)NC(=O)[C@H](Cc2c[nH]c3ccccc23)NC(=O)[C@@H]2CSCC(=O)CSC[C@H](NC(=O)[C@H](CO)NC(=O)[C@H](CC(=O)O)NC(=O)[C@H](CCCNC(=N)N)NC1=O)C(=O)N[C@@H](Cc1c[nH]c3ccccc13)C(=O)N[C@@H](CCC(N)=O)C(=O)N2 [Compound 6, D(1c)*SC(2a)WQC(2a)WWLR(1c)*] (HELM PEPTIDE1{C.W.Q.C.W.W.L.R.D.S}|CHEM1{[O=C(C[*:1])C[*:2]]}$PEPTIDE1,CHEM1,1:R3-1:R1|PEPTIDE1,CHEM1,4:R3-1:R2|PEPTIDE1,PEPTIDE1,1:R1-10:R2$$$V2.0)	> 1000 nM	> 1000 nM	
CC(=O)N[C@@H](CC(=O)O)C(=O)N[C@H]1CSCC(=O)CSC[C@@H](C(=O)N[C@@H](CCCNC(=N)N)C(N)=O)NC(=O)[C@](C)(CC(C)C)NC(=O)[C@H](Cc2c[nH]c3ccccc23)NC(=O)[C@H](Cc2ccc3ccccc3c2)NC(=O)[C@@H]2CSCC(=O)CSC[C@H](NC(=O)[C@H](CCC(N)=O)NC1=O)C(=O)N[C@@H](Cc1c[nH]c3ccccc13)C(=O)N[C@@H](CCC(N)=O)C(=O)N2 [Compound 62, [Ac]-DC(1a)QC(2a)WQC(2a)[2-Nal]W[2-Me-Leu]C(1a)R-[NH2]] (Ac-DCQCWQC[2Nal]W[αMeL]CR-NH2; linker 2-11, 4-7 via CH2COCH2)			Ki [1]: > 1000 nM; IC50 [2]: > 1000 nM
CC(C)C[C@@H]1NC(=O)[C@H](Cc2ccc3ccccc3c2)NC(=O)[C@H](Cc2c[nH]c3ccccc23)NC(=O)[C@@H]2CSCC(=O)CSC[C@H](NC(=O)[C@H](CO)NC(=O)CCNC(=O)CC[C@@H](C(=O)N[C@@H](CCCNC(=N)N)C(N)=O)NC1=O)C(=O)N[C@@H](Cc1c[nH]c3ccccc13)C(=O)N[C@@H](CCC(N)=O)C(=O)N2 [Compound 36, [bAla](1c)*SC(2a)WQC(2a)W[2-Nal]LE(1c)R-[NH2]] (HELM PEPTIDE1{[bAla].S.C.W.Q.C.W.[O=C([C@H](Cc1ccc2ccccc2c1)N[*:1])[*:2]].L.E.R.[am]}|CHEM1{[O=C(C[*:1])C[*:2]]}$PEPTIDE1,CHEM1,3:R3-1:R1|PEPTIDE1,CHEM1,6:R3-1:R2|PEPTIDE1,PEPTIDE1,1:R1-10:R3$$$V2.0)	> 1000 nM	> 1000 nM	

More lines, main results first:

Ki [1, 3]	IC50 [2, 4]	Compound	other results
> 1000 nM	> 1000 nM	CC(C)C[C@@H]1NC(=O)[C@H](Cc2c[nH]c3ccccc23)NC(=O)[C@H](Cc2c[nH]c3ccccc23)NC(=O)[C@@H]2CSCC(=O)CSC[C@H](NC(=O)[C@H](CO)NC(=O)[C@@H](NC(=O)[C@@H](N)CC(=O)O)CCC(=O)NCC[C@@H](C(=O)N[C@@H](CCCNC(=N)N)C(N)=O)NC1=O)C(=O)N[C@@H](Cc1c[nH]c3ccccc13)C(=O)N[C@@H](CCC(N)=O)C(=O)N2 [Compound 9, H-DE(1c)SC(2a)WQC(2a)WWL[Dab](1c)R-[NH2]] (HELM PEPTIDE1{D.E.S.C.W.Q.C.W.W.L.[Dab].R.[am]}|CHEM1{[O=C(C[*:1])C[*:2]]}$PEPTIDE1,PEPTIDE1,2:R3-11:R3|PEPTIDE1,CHEM1,4:R3-1:R1|PEPTIDE1,CHEM1,7:R3-1:R2$$$V2.0)	
> 1000 nM	> 1000 nM	CC(=O)N[C@@H](CC(=O)O)C(=O)N[C@H]1CCC(=O)NCCCC[C@@H](C(=O)N[C@@H](CCCNC(=N)N)C(N)=O)NC(=O)[C@H](CC(C)C)NC(=O)[C@H](Cc2c[nH]c3ccccc23)NC(=O)[C@H](C)NC(=O)[C@@H]2CSCC(=O)CSC[C@H](NC(=O)[C@H](CO)NC1=O)C(=O)N[C@@H](Cc1c[nH]c3ccccc13)C(=O)N[C@@H](CCC(N)=O)C(=O)N2 [Compound 14, [Ac]-DE(1c)SC(2a)WQC(2a)AWLK(1c)R-[NH2]] (HELM PEPTIDE1{[ac].D.E.S.C.W.Q.C.A.W.L.K.R.[am]}|CHEM1{[O=C(C[*:1])C[*:2]]}$PEPTIDE1,PEPTIDE1,3:R3-12:R3|PEPTIDE1,CHEM1,5:R3-1:R1|PEPTIDE1,CHEM1,8:R3-1:R2$$$V2.0)	
> 1000 nM	> 1000 nM	CC(=O)N[C@@H](CC(=O)O)C(=O)N[C@H]1CCC(=O)NCCCC[C@@H](C(=O)N[C@@H](CCCNC(=N)N)C(N)=O)NC(=O)[C@H](CC(C)C)NC(=O)[C@H](C)NC(=O)[C@H](Cc2c[nH]c3ccccc23)NC(=O)[C@@H]2CSCC(=O)CSC[C@H](NC(=O)[C@H](CO)NC1=O)C(=O)N[C@@H](Cc1c[nH]c3ccccc13)C(=O)N[C@@H](CCC(N)=O)C(=O)N2 [Compound 15, [Ac]-DE(1c)SC(2a)WQC(2a)WALK(1c)R-[NH2]] (HELM PEPTIDE1{[ac].D.E.S.C.W.Q.C.W.A.L.K.R.[am]}|CHEM1{[O=C(C[*:1])C[*:2]]}$PEPTIDE1,PEPTIDE1,3:R3-12:R3|PEPTIDE1,CHEM1,5:R3-1:R1|PEPTIDE1,CHEM1,8:R3-1:R2$$$V2.0)	
> 1000 nM	> 1000 nM	CC(=O)N[C@@H](CC(=O)O)C(=O)N[C@H]1CCC(=O)NCCCC[C@@H](C(=O)N[C@@H](CCCNC(=N)N)C(N)=O)NC(=O)[C@H](Cc2c[nH]c3ccccc23)NC(=O)[C@H](Cc2c[nH]c3ccccc23)NC(=O)[C@@H]2CSCC(=O)CSC[C@H](NC(=O)[C@H](CO)NC1=O)C(=O)N[C@@H](Cc1c[nH]c3ccccc13)C(=O)N[C@@H](CCC(N)=O)C(=O)N2 [Ref 7, [Ac]-DE(1c)SC(2a)WQC(2a)WWK(1c)R-[NH2], reference compound] (HELM PEPTIDE1{[ac].D.E.S.C.W.Q.C.W.W.K.R.[am]}|CHEM1{[O=C(C[*:1])C[*:2]]}$PEPTIDE1,PEPTIDE1,3:R3-11:R3|PEPTIDE1,CHEM1,5:R3-1:R1|PEPTIDE1,CHEM1,8:R3-1:R2$$$V2.0)	IL-23R inhibitory activity (in words) ([1]; with reference to Ki and IC50 data of the Examples): inactive
